The text below walks through data of WO2015077660A1, “Enzyme reactor system enabling enhanced enzymatic digestion, analyte solubility and improved mass spectrometric compatibility” (priority 2013, dated 2014).

For assay [1], the system named is trypsin. Description: Insulin digestion in immobilized enzyme reactor, buffer screening (Table 7). In kind it is biochemical, porcine. The settings on record: IMER, 70°C, 60 s.
The subject of assay [2] is T1, porcine trypsin.
T1 construct: purchased
Kind of assay: Insulin digestion by trypsin in solution, buffer screening (Table 9). In kind it is biochemical. The settings on record: 37°C, 18 h.

Turning to `C[C@H](CCC(=O)[O-])[C@H]1CC[C@H]2[C@@H]3CC[C@@H]4C[C@H](O)CC[C@]4(C)[C@H]3C[C@H](O)[C@]12C.[Na+]` [SDC, sodium deoxycholate], the Digested in assay [1] (0.1%) amounted to 296346; in assay [1] (0.2%), 94589; in assay [1] (0.5%) it was 12088; in assay [1] (1%) it was 8134; in assay [2] (0.1%), 1284656; in assay [2] (0.2%), 12332. The Digested in assay [2] (0.5%) is on record as 114517; in assay [2] (1%) it was 124131. For the same molecule, the Peptide in assay [1] (0.1%) was 101770; in assay [1] (0.2%) it was 30902; in assay [1] (0.5%) it was 1351; in assay [1] (1%), 1275; in assay [2] (0.1%), 5961; in assay [2] (0.2%), 480241. For the same molecule, the Peptide worked out at 361200 in assay [2] (0.5%) and 239833 in assay [2] (1%). The Undigested in assay [1] (0.1%) was found to be 4216641; in assay [1] (0.2%), 5010947; in assay [1] (0.5%), 1648635; in assay [1] (1%), 284843; in assay [2] (0.1%), 3123245; in assay [2] (0.2%), 29962. The Undigested was 499326 in assay [2] (0.5%) and 1149062 in assay [2] (1%).

`OCC(F)(F)F` [TFE]: the Digested in assay [1] (5%) worked out at 513982; in assay [1] (10%) it was 95904; in assay [1] (15%) it was 40955; in assay [1] (20%), 26014; in assay [2] (5%) it was 710737; in assay [2] (10%), 512715. Also, the Digested came out at 571716 in assay [2] (15%) and 661078 in assay [2] (20%). The Peptide is 208344 in assay [1] (5%); 39996 in assay [1] (10%); 18047 in assay [1] (15%); 9756 in assay [1] (20%); 271046 in assay [2] (5%); 201962 in assay [2] (10%). Also, the Peptide in assay [2] (15%) was 224520; in assay [2] (20%), 253234. Also, the Undigested was 4502764 in assay [1] (5%); 5112793 in assay [1] (10%); 5055881 in assay [1] (15%); 5626809 in assay [1] (20%); 4417966 in assay [2] (5%); 4499811 in assay [2] (10%). Besides, the Undigested in assay [2] (15%) stood at 4785656; in assay [2] (20%), 4907160.
